Reference: PMC3851587 (Molecular and biochemical parasitology, 2013)

How the values were obtained:
[1] = system: Chimera N1A; assay: [3H]-adenosine uptake in transfected L. donovani cells; format: cell-based, Crithidia fasciculata; settings: labelled compound
[2] = system: Chimera N3A; assay: as above; format: cell-based, Crithidia fasciculata; settings: labelled compound

With Nc1ncnc2c1ncn2[C@@H]1O[C@H](CO)[C@@H](O)[C@H]1O [adenosine] the Km [1] was 0.5 ± 0.14 µM and the Km [2] was 1.2 ± 0.16 µM.
